Values quoted from earlier work, collected in PubChem BioAssay AID1259409 (Chemical Carcinogenesis Research Information System (CCRIS), 2018).

Test system: rodent chemically induced tumor inhibition, incidence and multiplicity
Test: CCRIS tumor inhibitor studies
Details: Promoter: NONE USED

In the case of `CCO`, the “tumour outcome (control, treated, inhibition, significance)” value (Carcinogen: AZOXYMETHANE, 25843-45-2, Dose [Inhibitor]: 33% OF TOTAL CALORIES OF DIET GIVEN CONTINUOUSLY FOR 3 WK PRIOR TO CARCINOGEN DOSE AND 10 WK DURING INDUCTION (STUDY DUR, Route [Inhibitor]: ORAL, Species: RAT, Strain/Sex: F344/MALE, Target Tissue: Type of Lesion: COLON: TUMOR, Dose [Carcinogen]: 14 MG/KG 1/WK FOR 10 WK) is listed as 91%, 5%, 94%, not calculated, the “tumour outcome (control, treated, inhibition, significance)” value (Carcinogen: AZOXYMETHANE, 25843-45-2, Dose [Inhibitor]: 33% OF TOTAL CALORIES OF DIET GIVEN CONTINUOUSLY FOR 3 WK PRIOR TO CARCINOGEN DOSE AND 10 WK DURING INDUCTION (STUDY DUR, Route [Inhibitor]: ORAL, Species: RAT, Strain/Sex: F344/MALE, Target Tissue: Type of Lesion: EAR CANAL: TUMOR, Dose [Carcinogen]: 14 MG/KG 1/WK FOR 10 WK) is listed as 9%, 0%, 100%, not calculated and the “tumour outcome (control, treated, inhibition, significance)” value (Carcinogen: AZOXYMETHANE, 25843-45-2, Dose [Inhibitor]: 33% OF TOTAL CALORIES OF DIET GIVEN CONTINUOUSLY FOR 3 WK PRIOR TO CARCINOGEN DOSE AND 10 WK DURING INDUCTION (STUDY DUR, Route [Inhibitor]: ORAL, Species: RAT, Strain/Sex: F344/MALE, Target Tissue: Type of Lesion: SMALL INTESTINE: TUMOR, Dose [Carcinogen]: 14 MG/KG 1/WK FOR 10 WK) is listed as 74%, 0%, 100%, p<0.0001. For the same molecule, the “tumour outcome (control, treated, inhibition, significance)” value (Carcinogen: ETHYL CARBAMATE, 51-79-6, Dose [Inhibitor]: 0, 12% ADMINISTERED WITH CARCINOGEN IN DRINKING WATER FOR 41 WK (STUDY DURATION: 41 WK), Route [Inhibitor]: ORAL, Species: MOUSE, Strain/Sex: C3H/MALE, Target Tissue: Type of Lesion: LIVER: HEMANGIOENDOTHELIOMA, Dose [Carcinogen]: 20 MG/KG IN DRINKING WATER FOR 41 WK) was 14%, 14%, 0%, not calculated, the “tumour outcome (control, treated, inhibition, significance)” value (Carcinogen: ETHYL CARBAMATE, 51-79-6, Dose [Inhibitor]: 0, 12% ADMINISTERED WITH CARCINOGEN IN DRINKING WATER FOR 41 WK (STUDY DURATION: 41 WK), Route [Inhibitor]: ORAL, Species: MOUSE, Strain/Sex: C3H/MALE, Target Tissue: Type of Lesion: LIVER: HEMANGIOSARCOMA, Dose [Carcinogen]: 10 MG/KG IN DRINKING WATER FOR 41 WK) was 5%, 0%, 100%, not significant and the “tumour outcome (control, treated, inhibition, significance)” value (Carcinogen: ETHYL CARBAMATE, 51-79-6, Dose [Inhibitor]: 0, 12% ADMINISTERED WITH CARCINOGEN IN DRINKING WATER FOR 41 WK (STUDY DURATION: 41 WK), Route [Inhibitor]: ORAL, Species: MOUSE, Strain/Sex: C3H/MALE, Target Tissue: Type of Lesion: LIVER: HEMANGIOSARCOMA, Dose [Carcinogen]: 20 MG/KG IN DRINKING WATER FOR 41 WK) was 24%, 0%, 100%, not significant. For the same molecule, the “tumour outcome (control, treated, inhibition, significance)” value (Carcinogen: ETHYL CARBAMATE, 51-79-6, Dose [Inhibitor]: 0, 12% ADMINISTERED WITH CARCINOGEN IN DRINKING WATER FOR 41 WK (STUDY DURATION: 41 WK), Route [Inhibitor]: ORAL, Species: MOUSE, Strain/Sex: C3H/MALE, Target Tissue: Type of Lesion: LIVER: HEPATOCELLULAR ADENOMA, Dose [Carcinogen]: 10 MG/KG IN DRINKING WATER FOR 41 WK) was 57%, 24%, 58%, not significant, the “tumour outcome (control, treated, inhibition, significance)” value (Carcinogen: ETHYL CARBAMATE, 51-79-6, Dose [Inhibitor]: 0, 12% ADMINISTERED WITH CARCINOGEN IN DRINKING WATER FOR 41 WK (STUDY DURATION: 41 WK), Route [Inhibitor]: ORAL, Species: MOUSE, Strain/Sex: C3H/MALE, Target Tissue: Type of Lesion: LIVER: HEPATOCELLULAR ADENOMA, Dose [Carcinogen]: 20 MG/KG IN DRINKING WATER FOR 41 WK) was 48%, 57%, -19%, not significant and the “tumour outcome (control, treated, inhibition, significance)” value (Carcinogen: ETHYL CARBAMATE, 51-79-6, Dose [Inhibitor]: 0, 12% ADMINISTERED WITH CARCINOGEN IN DRINKING WATER FOR 41 WK (STUDY DURATION: 41 WK), Route [Inhibitor]: ORAL, Species: MOUSE, Strain/Sex: C3H/MALE, Target Tissue: Type of Lesion: LIVER: HEPATOCELLULAR CARCINOMA, Dose [Carcinogen]: 10 MG/KG IN DRINKING WATER FOR 41 WK) was 5%, 0%, 100%, not significant. The “tumour outcome (control, treated, inhibition, significance)” value (Carcinogen: ETHYL CARBAMATE, 51-79-6, Dose [Inhibitor]: 0, 12% ADMINISTERED WITH CARCINOGEN IN DRINKING WATER FOR 41 WK (STUDY DURATION: 41 WK), Route [Inhibitor]: ORAL, Species: MOUSE, Strain/Sex: C3H/MALE, Target Tissue: Type of Lesion: LIVER: HEPATOCELLULAR CARCINOMA, Dose [Carcinogen]: 20 MG/KG IN DRINKING WATER FOR 41 WK) was 14%, 5%, 64%, not significant, the “tumour outcome (control, treated, inhibition, significance)” value (Carcinogen: ETHYL CARBAMATE, 51-79-6, Dose [Inhibitor]: 0, 12% ADMINISTERED WITH CARCINOGEN IN DRINKING WATER FOR 41 WK (STUDY DURATION: 41 WK), Route [Inhibitor]: ORAL, Species: MOUSE, Strain/Sex: C3H/MALE, Target Tissue: Type of Lesion: LUNG: ALVEOLAR ADENOMA, Dose [Carcinogen]: 10 MG/KG IN DRINKING WATER FOR 41 WK) was 19%, 0%, 100%, not significant and the “tumour outcome (control, treated, inhibition, significance)” value (Carcinogen: ETHYL CARBAMATE, 51-79-6, Dose [Inhibitor]: 0, 12% ADMINISTERED WITH CARCINOGEN IN DRINKING WATER FOR 41 WK (STUDY DURATION: 41 WK), Route [Inhibitor]: ORAL, Species: MOUSE, Strain/Sex: C3H/MALE, Target Tissue: Type of Lesion: LUNG: ALVEOLAR ADENOMA, Dose [Carcinogen]: 20 MG/KG IN DRINKING WATER FOR 41 WK) was 48%, 38%, 21%, not significant. For the same molecule, the “tumour outcome (control, treated, inhibition, significance)” value (Carcinogen: ETHYL CARBAMATE, 51-79-6, Dose [Inhibitor]: 0, 12% ADMINISTERED WITH CARCINOGEN IN DRINKING WATER FOR 41 WK (STUDY DURATION: 41 WK), Route [Inhibitor]: ORAL, Species: MOUSE, Strain/Sex: C3H/MALE, Target Tissue: Type of Lesion: LUNG: CLARA-CELL ADENOMA, Dose [Carcinogen]: 10 MG/KG IN DRINKING WATER FOR 41 WK) was 52%, 24%, 54%, not significant, the “tumour outcome (control, treated, inhibition, significance)” value (Carcinogen: ETHYL CARBAMATE, 51-79-6, Dose [Inhibitor]: 0, 12% ADMINISTERED WITH CARCINOGEN IN DRINKING WATER FOR 41 WK (STUDY DURATION: 41 WK), Route [Inhibitor]: ORAL, Species: MOUSE, Strain/Sex: C3H/MALE, Target Tissue: Type of Lesion: LUNG: CLARA-CELL ADENOMA, Dose [Carcinogen]: 20 MG/KG IN DRINKING WATER FOR 41 WK) was 57%, 38%, 33%, not significant and the “tumour outcome (control, treated, inhibition, significance)” value (Carcinogen: ETHYL CARBAMATE, 51-79-6, Dose [Inhibitor]: 0, 20% SIMULTANEOUSLY WITH CARCINOGEN 1/D FOR 8 WK (STUDY DURATION: 16 WK), Route [Inhibitor]: GAVAGE, Species: MOUSE, Strain/Sex: NMRI/FEMALE, Target Tissue: Type of Lesion: LUNG: ADENOMA, Dose [Carcinogen]: 18 MG/KG IN 20% ETHANOL 1/D FOR 8 WK (CONTROL GROUP ADMINISTERED CARCINOGEN IN WATER)) was 65%, 76%, -17%, not significant. The “tumour outcome (control, treated, inhibition, significance)” value (Carcinogen: ETHYL CARBAMATE, 51-79-6, Dose [Inhibitor]: 0, 20% SIMULTANEOUSLY WITH CARCINOGEN 1/D FOR 8 WK (STUDY DURATION: 16 WK), Route [Inhibitor]: GAVAGE, Species: MOUSE, Strain/Sex: NMRI/FEMALE, Target Tissue: Type of Lesion: LUNG: ADENOMA, Dose [Carcinogen]: 36 MG/KG IN 20% ETHANOL 1/D FOR 8 WK (CONTROL GROUP ADMINISTERED CARCINOGEN IN WATER)) was 96%, 83%, 14%, not significant and the “tumour outcome (control, treated, inhibition, significance)” value (Carcinogen: ETHYL CARBAMATE, 51-79-6, Dose [Inhibitor]: 0, 20% SIMULTANEOUSLY WITH CARCINOGEN 1/D FOR 8 WK (STUDY DURATION: 16 WK), Route [Inhibitor]: GAVAGE, Species: MOUSE, Strain/Sex: NMRI/FEMALE, Target Tissue: Type of Lesion: LUNG: ADENOMA, Dose [Carcinogen]: 90 MG/KG IN 20% ETHANOL 1/D FOR 8 WK (CONTROL GROUP ADMINISTERED CARCINOGEN IN WATER)) was 100%, 100%, 0%, not significant.
